#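 Cultured in 96-well plates, cells were exposed to test compound for 48 hours across five concentrations. GI50 = concentration required for 50% inhibition of growth. TGI marks complete inhibition of growth.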
# How the values were obtained:
# Experiment in all cases: DTP human tumour cell line panel, 48 h
# HT29 colon = test system: HT29 colon
# HL-60(TB) leukemia = test system: HL-60(TB) leukemia
# CAKI-1 renal = test system: CAKI-1 renal
# A498 renal = test system: A498 renal
# RXF 393 renal = test system: RXF 393 renal
# K-562 leukemia = test system: K-562 leukemia
# SK-MEL-5 melanoma = test system: SK-MEL-5 melanoma
# RPMI-8226 leukemia = test system: RPMI-8226 leukemia
# SN12C renal = test system: SN12C renal
# MDA-MB-231 breast = test system: MDA-MB-231 breast
SMILES,TGI (HT29 colon) [µM],TGI (HL-60(TB) leukemia) [µM],TGI (CAKI-1 renal) [µM],TGI (A498 renal) [µM],TGI (RXF 393 renal) [µM],TGI (K-562 leukemia) [µM],TGI (SK-MEL-5 melanoma) [µM],TGI (RPMI-8226 leukemia) [µM],TGI (SN12C renal) [µM],GI50 (MDA-MB-231 breast) [µM],TGI (MDA-MB-231 breast) [µM],GI50 (HT29 colon) [µM],GI50 (CAKI-1 renal) [µM],GI50 (A498 renal) [µM],GI50 (RXF 393 renal) [µM],GI50 (K-562 leukemia) [µM],GI50 (SK-MEL-5 melanoma) [µM],GI50 (RPMI-8226 leukemia) [µM],GI50 (SN12C renal) [µM],GI50 (HL-60(TB) leukemia) [µM]
COC(=O)C(CC(=O)c1c[nH]c2ccccc12)c1c[nH]c2ccccc12 (centres undefined),31.2,49.4,70.8,40,28,66.7,32.2,44.8,–,–,–,–,–,–,–,–,–,–,–,–
ClCc1ccc(C2OCCO2)cc1,32.6,12.5,–,45.3,> 62,> 31.6,> 55.5,74.6,35.3,–,–,–,–,–,–,–,–,–,–,–
CC1=NOC(=O)C1N=Nc1ccc(Br)c(C)c1 (centres undefined),> 100,23.8,30.8,36.2,43.1,30.5,25.4,40.7,48.5,–,–,–,–,–,–,–,–,–,–,–
N#Cc1c(C[n+]2ccccc2)c2ccccc2oc1=O,> 100,–,> 100,–,–,> 100,> 100,> 100,> 100,–,–,–,–,–,–,–,–,–,–,–
Nc1ccc(C(=O)CC2(O)C(=O)Nc3c(Cl)cc(Cl)cc32)cc1 (centres undefined),> 100,78.5,–,> 100,> 100,> 100,–,> 100,> 100,–,–,–,–,–,–,–,–,–,–,–
COC(=O)c1ccc2c(c1)C(=O)c1c-2n(CCCN)c(=O)c2cc(OC)c(OC)cc12,31.4,–,37.2,36.2,> 52,5.44,34.3,12.5,31.4,13.6,31.5,13.8,18.6,17.4,21.6,2.41,17.4,5.77,14.9,–
O=C1CCN2CCC(=O)c3c2c(cc2ccccc32)N1,> 100,–,> 100,> 100,> 100,> 100,> 100,> 100,> 100,–,–,–,–,–,–,–,–,–,–,–
COc1cc(/C=C/c2ccc(OC)c(OC)c2OC)cc(OC)c1OC,> 63.9,> 68,> 96.4,> 73.9,46.3,> 69.3,28.5,37.1,> 69.5,–,–,–,–,–,–,–,–,–,–,–
Cc1c(Cl)cccc1NC(=O)/C(Cl)=C(\Cl)C(=O)O,38,–,33.9,> 100,36.9,> 100,38.2,56.5,31.2,–,–,–,–,–,–,–,–,–,–,–
Cc1ccc2sc3ccc(N)cc3c(=O)c2c1,> 100,> 100,> 100,> 100,> 100,> 100,> 100,–,> 100,–,> 100,–,–,–,–,–,–,–,–,–
COc1cc(/C=C2\CC3C4CC=C5C[C@@H](O)CC[C@]5(C)C4CC[C@]3(C)C2=O)ccc1OCCCn1ccnc1 (some centres undefined),> 100,37.3,39.8,44.2,34.8,39.2,27,–,33.7,27.1,65.6,13.7,19.1,25.5,12.6,17.6,14.1,–,17,19.4
CC(C)(C)n1cc(-c2ccnc(NCCCNS(=O)(=O)c3ccc(Br)cc3)c2)c(-c2cccc(O)c2)n1,3.79,7.49,5.06,3.47,2.87,> 100,2.87,–,3.01,1.74,3.39,1.42,2.16,1.33,1.46,2.02,1.52,–,1.61,2.72
CCCCNC(=O)Oc1ccc(/C(=C(/CC)Cc2ccccc2)c2ccc(OCCN3CCCCCC3)cc2)cc1,36.3,40,44.7,–,32.1,46.9,39.1,52.8,83.6,19.2,36.6,18.1,19.3,–,17.3,16.7,19.9,24,29.6,16.5
CC1=C(/C=C/C(C)=C/C=C/C(C)=C/C=C/C=C(C)/C=C/C=C(C)/C=C/C2=C(C)C(=O)C(O)CC2(C)C)C(C)(C)CC(O)C1=O (centres undefined),> 100,> 100,> 100,> 100,> 100,> 100,> 100,> 100,> 100,–,–,–,–,–,–,–,–,–,–,–
S=P(N1CCCC1)(N1CC1)N1CC1,> 100,> 100,> 100,> 100,> 100,> 100,> 100,> 100,> 100,–,–,–,–,–,–,–,–,–,–,–
COc1ccc(N2C(=O)C3c4[nH]c5ccccc5c4C4CCCCCCC4C3C2=O)cc1 (centres undefined),> 100,74,39.5,52.3,–,> 75.2,61.9,> 100,14.9,–,–,–,–,–,–,–,–,–,–,–
CCOC(=O)C1=C(Nc2ccc(Cl)c(Cl)c2)OC/C1=N\NC(=O)Cc1ccccc1,–,> 100,> 100,> 100,> 100,> 100,> 100,> 100,> 100,–,–,–,–,–,–,–,–,–,–,–
COc1cc(C2c3cc4c(cc3[C@@H](N(C)C)[C@H]3COC(=O)C23)OCO4)cc(OC)c1O (some centres undefined),> 100,> 100,99,56,> 100,> 100,86.5,> 100,> 100,–,–,–,–,–,–,–,–,–,–,–
Cc1c(C(=O)CC(=O)C(=O)Nc2cc(Cl)ccc2Cl)[n+](=O)c2ccccc2n1[O-],> 100,–,> 100,> 100,> 100,> 100,> 100,57.8,> 100,–,–,–,–,–,–,–,–,–,–,–
CC1(O)CCC2(C)C(=O)C1(C)CCC21OCCO1 (centres undefined),> 100,> 100,–,–,> 100,> 100,> 100,> 100,> 100,–,–,–,–,–,–,–,–,–,–,–
CN1C(=O)C2C=CC1C1CCC2N(C)C1=O (centres undefined),> 100,> 100,> 100,> 100,> 100,> 100,> 100,> 100,> 100,–,–,–,–,–,–,–,–,–,–,–

SMILES,TGI (HT29 colon) [µM],TGI (HL-60(TB) leukemia) [µM],TGI (CAKI-1 renal) [µM],TGI (A498 renal) [µM],TGI (RXF 393 renal) [µM],TGI (K-562 leukemia) [µM],TGI (SK-MEL-5 melanoma) [µM],TGI (RPMI-8226 leukemia) [µM],TGI (SN12C renal) [µM],GI50 (MDA-MB-231 breast) [µM],TGI (MDA-MB-231 breast) [µM],GI50 (HT29 colon) [µM],GI50 (CAKI-1 renal) [µM],GI50 (A498 renal) [µM],GI50 (RXF 393 renal) [µM],GI50 (K-562 leukemia) [µM],GI50 (SK-MEL-5 melanoma) [µM],GI50 (RPMI-8226 leukemia) [µM],GI50 (SN12C renal) [µM],GI50 (HL-60(TB) leukemia) [µM]
COC(=O)[C@H]1[C@H]2C[C@@H]3c4[nH]c5cc(OC)ccc5c4CCN3C[C@H]2C[C@@H](OC(=O)/C=C/c2cc(OC)c(OC)c(OC)c2)[C@@H]1OC,–,–,26.8,18.6,31.5,38.4,15.5,85.1,> 100,10.6,41.8,–,3.97,4.23,11,3.24,3.66,4.05,4.56,–
O=C(CSc1nc(-c2ccccc2)c(-c2ccccc2)[nH]1)NNC(=S)Nc1ccccc1,> 100,> 100,> 100,> 100,–,–,> 100,> 100,> 100,–,–,–,–,–,–,–,–,–,–,–
COC(=O)[C@]1(C)C(OC)=CC(=O)C2C1[C@H]1CCC[C@@H]21 (some centres undefined),> 100,> 100,> 100,> 100,> 100,> 100,> 100,> 100,> 100,–,–,–,–,–,–,–,–,–,–,–
COc1c(Sc2ccccc2)cc(Sc2ccccc2)c2cccnc12,71.1,–,70.7,82.3,51.5,> 100,30.5,50,97.6,–,–,–,–,–,–,–,–,–,–,–
O=C(O)Cc1ccccc1CCc1ccccc1Cl,> 100,> 100,> 100,> 100,> 100,> 100,> 100,> 100,> 100,–,–,–,–,–,–,–,–,–,–,–
C/C=C(/C)c1cnc(CC(C)C)c(=O)[nH]1,> 100,–,> 100,> 100,> 100,> 100,> 100,> 100,> 100,–,> 100,–,–,–,–,–,–,–,–,–
CCN(CC)CCOc1c(OC)c(Br)cc2c(C)c(C(=O)OC)oc12,–,–,3.5,14.6,13,2.09,1.53,0.834,2.36,1.22,3.46,–,1.26,7.39,4.17,0.332,0.818,0.186,0.92,–
O=c1cc(-c2ccccn2)[nH]c2cc(F)ccc12,> 100,> 100,–,–,> 100,> 100,> 100,> 100,> 100,–,–,–,–,–,–,–,–,–,–,–
CS(=O)(=O)NNS(=O)(=O)c1ccc(Cl)cc1,> 100,> 100,> 100,> 100,> 100,> 100,> 100,> 100,> 100,–,–,–,–,–,–,–,–,–,–,–
COC(=O)c1ccc(C(=O)OC)c2nc3cc(C)ccc3nc12,> 100,> 100,> 100,> 100,–,> 100,> 100,> 100,> 100,–,–,–,–,–,–,–,–,–,–,–
CCCCCCCCCCCCCC(=O)NCC(OCC)OCC,> 100,> 100,–,> 100,> 100,–,> 100,–,> 100,–,–,–,–,–,–,–,–,–,–,–
C[C@]12CC[C@@H](OC(=O)N(CCCl)N=O)C[C@@H]1CC[C@@H]1[C@@H]2CC[C@]2(C)C(=O)CC[C@@H]12,15.9,–,20.7,4.29,–,> 100,19.5,> 50.8,23.3,13.5,29.8,3.26,1.67,1.68,–,–,3.93,14.8,8.01,–
COc1cc(C2c3cc4c(cc3[C@@H](OCCN(C)C)C3COC(=O)[C@H]23)OCO4)cc(OC)c1O (some centres undefined),2.43,> 100,1.33,0.713,1.97,> 100,1.42,–,0.606,–,–,–,–,–,–,–,–,–,–,–
O=C(O)c1cccc(/C=C/c2ccccc2)c1,> 100,–,> 100,> 100,> 100,–,> 100,> 100,> 100,–,> 100,–,–,–,–,–,–,–,–,–
COC(=O)C1Cc2c([nH]c3ccccc23)C(c2ccccc2O)N1Cc1ccccc1 (centres undefined),> 46.4,> 46.4,34.5,37.8,61.7,> 46.4,> 46.4,> 100,> 46.4,–,–,–,–,–,–,–,–,–,–,–
CC1(C)C(=O)C=CC2(C)C1CC(O)C1(C)C2CCC2(C)C(c3ccoc3)OC(=O)C3OC321 (centres undefined),33.7,–,31.4,28.8,33.6,> 100,21.8,47.9,37.4,–,36.7,–,–,–,–,–,–,–,–,–
COC(=O)[C@H]1N[C@@H](C(=O)OC)C23CCC[C@H]2CC[C@]1(C(OC)OC)C3,> 100,> 100,> 100,> 100,–,> 100,> 100,> 100,> 100,–,–,–,–,–,–,–,–,–,–,–
CC(/C=C/NNC1=NC(c2ccccc2)C(c2ccccc2)=NN1)Sc1ccccc1N (centres undefined),23.9,6.45,28,26.6,–,> 100,23.6,> 100,18.2,–,–,–,–,–,–,–,–,–,–,–
CCOC(=O)c1c2c(n(Cc3ccccc3)c1C)-c1nc(Cc3ccccc3)[nH]c1C(=O)C2=O,3,–,2.18,3.17,2.34,4.05,3.06,4.93,3.21,1.37,2.67,1.64,0.673,1.74,0.87,1.85,1.69,1.78,1.58,–
COc1ccccc1NC(=O)C1=C(C)NC(C)=C(C(=O)Nc2ccccc2OC)C1c1ccc(N(C)C)cc1,> 100,40.7,89.1,> 100,68.6,54.3,96.7,55.4,> 100,–,–,–,–,–,–,–,–,–,–,–
NC(=O)c1csc(C2CCC(CO)O2)n1 (centres undefined),> 100,> 100,> 100,> 100,–,> 100,–,> 100,> 100,–,–,–,–,–,–,–,–,–,–,–

# Reference: PubChem BioAssay (NCI)
